Data on 15 compounds can be found in US7012129B2, “Antiviral composition comprising glycine amide” (priority 2001, dated 2006).

Peptide text beside a SMILES is read from it.

Experiment [1] concerns HIV-1. The conditions noted are these: for effect on HIV replication/infectivity (in words): 100 μM concentration; for p24 ng/ml Mean: 100 μM peptide, culture supernatant, day 7 after infection (FIG. 1), infected control 53.31.
Source text: The tripeptide amides made according to EXAMPLE 1 were used in several HIV-1 infectivity assays to determine the ability of said tripeptide amides to inhibit HIV replication and/or infection. The efficiency of HIV-1 replication and status of HIV-1 infection was monitored by the concentration of p24 protein in the cell supernatant.
In a first set of experiments, approximately 3×10^5 H9 cells were infected with HIV-1 (e.g., 50–100 TCID50 per 300,000 H9 cells) to test the inhibitory effect of various tripeptide amides provided at 100 μM concentration.
By one approach, virus was added at 50–100 TCID50 to 3×10^5 H9 cells in a total volume of 500 μl containing RPMI 1640 medium supplemented with 10% (v/v) heat-inactivated fetal bovine serum (FBS), L-Glutamine, and Bensylpenicillin and Streptomycin (PS) (approximately 0.5 ml added to 500 ml RPMI medium), all available through LifeTechnology/GIBCO laboratories. This media is referred to as “RPMI++ media.” Cell counting was accomplished using 0.2% tryphanblue dissolved in PBS and a Bürker cell counter chamber. The virus and cells were then mixed gently on a vortex and were incubated at 37° C. for one hour and thirty minutes. Next, the cells were pelleted at 1200 rpm for 7 minutes and the supernatant was discarded.
(§1) The cells were then resuspended in RPMI++ at a concentration of 3×10^5 cells per ml. […] Cells were then incubated at 37° C. in a 5% CO2 enriched incubator. The medium was changed on day 4, 7, and finally day 11. The infection was stopped on day 11 or 14. During each media change, approximately 0.8 ml was replaced and 0.8 ml of the supernatant was transferred to a sterile 96 well plate and stored at −80° C. for p24 analysis.
(§2) The presence of p24 in the supernatants was determined using a p24 antigen detection method. […] By one approach, a capture-assay is employed, wherein the viral antigen is captured on a 96-well plate coated with a polyclonal anti-p24 rabbit serum (Swedish Institute for infectious disease control). The captured antigen is then detected with peroxidase conjugated anti-p24 mouse monoclonal antibodies. The conjugate is a pool of three different monoclonal antibodies. The analysis was performed with cell free supernatant directly from the cell culture or with supernatant that had been stored at −20° C. to −80° C.
Accordingly, a p24 standard was diluted (e.g., 4, 2, 1, 0.5, 0.25, 0.125, 0.0625 ng/ml) in RPMI++ media. […] In some cases, serial dilutions of the supernatants were made so as to more accurately detect p24 concentration. Coated plates (e.g., plates coated with a polyclonal anti-p24 rabbit serum) were washed 4 times with approximately 300–350 μl/well washing buffer (PBS with 0.05% Tween-20). The plates were inverted and tapped against absorbant paper after each wash to discard the superfluous washing buffer. Approximately, 100 μl of each sample and standard was added to individual wells on the plate. The plates were covered with tape and incubated at 37° C. for 2 hours or in the dark at room temperature over night.
Next, the plates were washed again as above. Approximately 100 μl/well of conjugate diluted in conjugate buffer (PBS with 0.5% Triton X-100, 0.5% Bovine Serum Albumin, 0.05% Tween-20, and 10% Fetal Bovine Serum). The plates were then covered with tape and incubated at 37° C. for 2 to 4 hours.
The test system of experiment [2] is HIV. Description: Electron microscopy of HIV budding in treated HUT78 cells (nodular structures). Format: cell-based.
Experiment [3] has as its system HIV-1. To be noted: for Mean p24: CEM cells, 100 μM, culture supernatant, day 11 after infection (FIG. 2), inf. control 1.62; for inhibition of HIV-1 replication (in words): infected CEM cells, 100 μM concentration.
Procedure: By one approach, virus was added at 50–100 TCID50 to 3×10^5 H9 cells in a total volume of 500 μl containing RPMI 1640 medium supplemented with 10% (v/v) heat-inactivated fetal bovine serum (FBS), L-Glutamine, and Bensylpenicillin and Streptomycin (PS) (approximately 0.5 ml added to 500 ml RPMI medium), all available through LifeTechnology/GIBCO laboratories. […] The virus and cells were then mixed gently on a vortex and were incubated at 37° C. for one hour and thirty minutes. Next, the cells were pelleted at 1200 rpm for 7 minutes and the supernatant was discarded.
as §1, §2
Accordingly, a p24 standard was diluted (e.g., 4, 2, 1, 0.5, 0.25, 0.125, 0.0625 ng/ml) in RPMI++ media. The standard, recombinant HIV-1 LAI gag p24, was purchased from NIBSC, Centralized Facility for AIDS Reagent, MRC. (order no EVA620). In some cases, serial dilutions of the supernatants were made so as to more accurately detect p24 concentration. Coated plates (e.g., plates coated with a polyclonal anti-p24 rabbit serum) were washed 4 times with approximately 300–350 μl/well washing buffer (PBS with 0.05% Tween-20). The plates were inverted and tapped against absorbant paper after each wash to discard the superfluous washing buffer. Approximately, 100 μl of each sample and standard was added to individual wells on the plate. The plates were covered with tape and incubated at 37° C. for 2 hours or in the dark at room temperature over night.
Next, the plates were washed again as above. Approximately 100 μl/well of conjugate diluted in conjugate buffer (PBS with 0.5% Triton X-100, 0.5% Bovine Serum Albumin, 0.05% Tween-20, and 10% Fetal Bovine Serum). The plates were then covered with tape and incubated at 37° C. for 2 to 4 hours. The OPD substrate (ABBOTT) was then prepared by adding 1 tablet of OPD per 5 ml OPD substrate solution (12.8 mg OPD (o-phenylenediamine. 2 HCl) per tablet and 1 tablet was dissolved in 5 ml citrate-phosphate buffer containing 0.02% hydrogen peroxidase). The solution was kept in the dark until it was used. The conjugate bound plates were then washed as above and, after the final wash, 100 μof OPD substrate solution/well was added and the plates were incubated at room temperature for 30 minutes.
Experiment [4] concerns HIV. The experiment can be described thus: Electron microscopy of HIV budding in treated ACH-2 cells (nodular structures). Format: cell-based.
Setting [5] is: HIV infected H9 cells, 100 μM, day 11 (FIG. 3).
[6] abbreviates: ACH-2 cells, electron microscopy.

`CC[C@H](C)[C@H](NC(=O)[C@H](C)N)C(=O)NCC(N)=O` [AIG-NH2, alanyl-isoleucyl-glycine-amide] (H-Ala-Ile-Gly-NH2): in the experiment with HIV-1 [1] (H9 cells), the “effect on HIV replication/infectivity (in words)” value was “almost completely inhibited HIV replication” and the “p24 ng/ml Mean” value came to 10.69 ng/mL.

For `CC(C)C[C@H](NC(=O)[C@H](C)N)C(=O)NCC(N)=O` [ALG-NH2, alanyl-leucyl-glycine-amide] (H-Ala-Leu-Gly-NH2), in the experiment on HIV [2], the “dense nodular structure attached to the outer part of viral envelope” value (“dense nodular structure attached” for short) came to 8% and the “treated cells carrying virus particles that had nodular structures on outer membrane” value stood at 56%.

For the compound `C[C@H](N)C(=O)N1CCC[C@H]1C(=O)NCC(N)=O` [APG-NH2, alanyl-prolyl-glycine-amide] (H-Ala-Pro-Gly-NH2), in the experiment with HIV-1 [3], the “Mean p24” value is 0.01 ng/mL and the “inhibition of HIV-1 replication (in words)” value was “inhibit HIV-1 replication”. In the experiment with HIV-1 [1] (H9 cells), the “effect on HIV replication/infectivity (in words)” value is reported as “almost completely inhibited HIV replication” and the “p24 ng/ml Mean” value was 1.13 ng/mL.

For `NCC(N)=O` [G-NH2, glycine amide], in the experiment on HIV-1 [3], the “Mean p24” value came out at 0.04 ng/mL and the “inhibition of HIV-1 replication (in words)” value is reported as “inhibited HIV-1 replication”. For the same compound, the “inhibition of HIV replication at 20 μM (in words)” value in the experiment on HIV-1 [1] (H9 cells, 20 μM, p24 at day 11 after infection (FIG. 4)) was “almost completely inhibited HIV replication”. In addition, in the experiment on HIV-1 [1] (H9 cells, 0.5–20 μM, p24 at day 11 after infection (FIG. 4)), the “dose dependence of inhibition of HIV replication (in words)” value is listed as “inhibits HIV replication in a dose dependent manner”. Besides, the “concentration at which significant inhibition of HIV replication was achieved” value in the experiment on HIV-1 [1] (H9 cells, p24 at day 11 after infection, 0.5–20 μM tested (FIG. 4)) was “less than 5 μM”. For the same compound, in the experiment with HIV-1 [1] (setting [5]), the “amount of p24 in culture supernatant compared with controls (in words)” value was “almost identical to that found in the non-infected control”.

With `NCC(=O)O` [G-OH, glycine], in the experiment on HIV-1 [3], the “Mean p24” value turned out to be 1.73 ng/mL and the “inhibition of HIV-1 replication (in words)” value is “an inhibition of HIV-1 replication was not observed”. In the experiment on HIV-1 [1] (setting [5]), the “p24 present in the culture supernatant” value is reported as “approximately 65 ng/ml”.

As to `NCC(=O)N[C@@H](Cc1ccccc1)C(=O)NCC(N)=O` [GFG-NH2, glycyl-phenylalanyl-glycine-amide] (H-Gly-Phe-Gly-NH2), in the experiment on HIV-1 [3], the “Mean p24” value was 0.08 ng/mL and the “inhibition of HIV-1 replication (in words)” value is given as “inhibit HIV-1 replication”. Moreover, in the experiment with HIV-1 [1] (H9 cells), the “effect on HIV replication/infectivity (in words)” value is “almost completely inhibited HIV replication” and the “p24 ng/ml Mean” value was 0.45 ng/mL.

With `NCC(=O)NCC(=O)NCC(N)=O` [GGG-NH2, glycyl-glycyl-glycine-amide, reference compound] (H-Gly-Gly-Gly-NH2), in the experiment on HIV-1 [1] (H9 cells), the “effect on HIV replication/infectivity (in words)” value is “little affect on HIV infectivity” and the “p24 ng/ml Mean” value came to 61.82 ng/mL.

As for `CC(C)C[C@H](NC(=O)CN)C(=O)NCC(N)=O` [GLG-NH2, glycyl-leucyl-glycine-amide] (H-Gly-Leu-Gly-NH2), in the experiment with HIV-1 [1] (H9 cells), the “effect on HIV replication/infectivity (in words)” value is “almost completely inhibited HIV replication” and the “p24 ng/ml Mean” value was determined as 2.71 ng/mL.

Take `NCC(=O)N1CCC[C@H]1C(=O)NCC(N)=O` [GPG-NH2, glycyl-prolyl-glycine-amide, reference compound] (H-Gly-Pro-Gly-NH2): the “Mean p24” value in the experiment with HIV-1 [3] worked out at 0.07 ng/mL. Also, the “nodules in cells not stimulated with PMA to produce virus (in words)” value with HIV [4] (ACH-2 cells, 1 mM, no PMA stimulation) is “did not show such nodules”. Also, in the experiment with HIV [4] (setting [6]), the “dense nodular structure attached” value turned out to be 2% and the “treated cells carrying virus particles that had nodular structures on outer membrane” value stood at 74%. In the experiment with HIV [4] (PMA stimulated ACH-2 cells, GPG-NH2 1 mM plus ritonavir 2 μM), the “nodules upon combined treatment with protease inhibitor ritonavir (in words)” value is given as “gave no such nodules”. In addition, in the experiment with HIV [2], the “dense nodular structure attached” value was determined as 4% and the “treated cells carrying virus particles that had nodular structures on outer membrane” value was 65%. Moreover, in the experiment on HIV-1 [1] (H9 cells), the “effect on HIV replication/infectivity (in words)” value was “almost completely inhibited HIV replication” and the “p24 ng/ml Mean” value amounted to 0.42 ng/mL.

With `NCC(=O)N[C@@H](Cc1c[nH]c2ccccc12)C(=O)NCC(N)=O` [GWG-NH2, glycyl-tryptophanyl-glycine-amide] (H-Gly-Trp-Gly-NH2), in the experiment with HIV-1 [3], the “Mean p24” value amounted to 0.15 ng/mL and the “inhibition of HIV-1 replication (in words)” value is “inhibit HIV-1 replication”. In the experiment on HIV-1 [1] (H9 cells), the “effect on HIV replication/infectivity (in words)” value was “almost completely inhibited HIV replication” and the “p24 ng/ml Mean” value worked out at 0.61 ng/mL.

For `NCC(=O)N[C@@H](Cc1ccc(O)cc1)C(=O)NCC(N)=O` [GYG-NH2, glycyl-tyrosyl-glycine-amide] (H-Gly-Tyr-Gly-NH2), in the experiment on HIV-1 [3], the “Mean p24” value came out at 0.02 ng/mL and the “inhibition of HIV-1 replication (in words)” value is listed as “inhibited HIV-1 replication”.

For the compound `CC(C)C[C@H](N)C(=O)N[C@@H](CC(N)=O)C(=O)N[C@@H](Cc1ccccc1)C(N)=O` [LNF-NH2, leucyl-asparagyl-phenylalanine-amide, reference compound] (H-Leu-Asn-Phe-NH2), the “Mean p24” value in the experiment on HIV-1 [3] amounted to 1.45 ng/mL.

For the compound “fenylalanyl-leucyl-glycine-amide [FLG-NH2]”, in the experiment with HIV-1 [3], the “Mean p24” value stood at 0.00 ng/mL and the “inhibition of HIV-1 replication (in words)” value is on record as “inhibit HIV-1 replication”. In the experiment with HIV-1 [1] (H9 cells), the “effect on HIV replication/infectivity (in words)” value is on record as “almost completely inhibited HIV replication” and the “p24 ng/ml Mean” value was found to be 0.25 ng/mL.

As to “prolyl-glycine-arginine-amide [PGR-NH2, reference compound]”, in the experiment with HIV-1 [1] (H9 cells), the “effect on HIV replication/infectivity (in words)” value is “little affect on HIV infectivity” and the “p24 ng/ml Mean” value turned out to be 55.93 ng/mL.

Turning to “α-tertiary-butylglycine-prolyl-glycine-amide [tbutGPG-NH2]”, in the experiment with HIV-1 [3], the “Mean p24” value is -0.01 ng/mL and the “inhibition of HIV-1 replication (in words)” value is reported as “inhibit HIV-1 replication”. In the experiment with HIV-1 [1] (H9 cells), the “effect on HIV replication/infectivity (in words)” value is listed as “almost completely inhibited HIV replication” and the “p24 ng/ml Mean” value is 0.44 ng/mL.
